# Results reported in PubChem BioAssay AID1963974 (Molecular Pharmacology Branch, DTP, NCI, 2024).
# pIC50: −log10 of the molar value.
# Tested on: 648629-189-R-J1-PDC spheroids with HUVEC/MSC, viability
# Assay: Anticancer human tumor 648629-189-R-J1-PDC patient-derived bladder carcinoma cell line growth inhibition [PI3K]
# Conditions: for pIC50: curve of first compound; for viability, T/C: stronger effect = lower value
# How it was run: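 Viability of mixed-cell spheroids was determined after exposure to pairwise combinations, one partner being inavolisib, alpelisib, duvelisib or copanlisib. Highest tested concentration matched clinical Cmax where known and 10 microM where not, descending in half-log steps.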
# [1] = second compound 0.00316 µM, first compound 0.0316 µM
# [2] = second compound 0.00316 µM, first compound 0.1 µM
# [3] = second compound 0.00316 µM, first compound 0.316 µM
# [4] = second compound 0.00316 µM, first compound 1 µM
# [5] = second compound 0.00316 µM, first compound 3.16 µM
# [6] = second compound 0.00316 µM, first compound 10 µM
# [7] = second compound 0.01 µM, first compound 0.0316 µM
# [8] = second compound 0.01 µM, first compound 0.1 µM
# [9] = second compound 0.01 µM, first compound 0.316 µM
# [10] = second compound 0.01 µM, first compound 1 µM
# [11] = second compound 0.01 µM, first compound 3.16 µM
# [12] = second compound 0.01 µM, first compound 10 µM
# [13] = second compound 0.0316 µM, first compound 0.0316 µM
# [14] = second compound 0.0316 µM, first compound 0.1 µM
# [15] = second compound 0.0316 µM, first compound 0.316 µM
# [16] = second compound 0.0316 µM, first compound 1 µM
# [17] = second compound 0.0316 µM, first compound 3.16 µM
# [18] = second compound 0.0316 µM, first compound 10 µM
# [19] = second compound 0.1 µM, first compound 0.0316 µM
# [20] = second compound 0.1 µM, first compound 0.1 µM
# [21] = second compound 0.1 µM, first compound 0.316 µM
# [22] = second compound 0.1 µM, first compound 1 µM
# [23] = second compound 0.1 µM, first compound 3.16 µM
# [24] = second compound 0.1 µM, first compound 10 µM
# [25] = second compound 0.316 µM, first compound 0.0316 µM
# [26] = second compound 0.316 µM, first compound 0.1 µM
# [27] = second compound 0.316 µM, first compound 0.316 µM
# [28] = second compound 0.316 µM, first compound 1 µM
# [29] = second compound 0.316 µM, first compound 3.16 µM
# [30] = second compound 0.316 µM, first compound 10 µM
# [31] = second compound 1 µM, first compound 0.0316 µM
# [32] = second compound 1 µM, first compound 0.1 µM
# [33] = second compound 1 µM, first compound 0.316 µM
# [34] = second compound 1 µM, first compound 1 µM
# [35] = second compound 1 µM, first compound 3.16 µM
# [36] = second compound 1 µM, first compound 10 µM
# 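Note: spheroids exposed to agents for seven days before reading.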
# 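Throughout, for viability, T/C: percent of vehicle control luminescence where 100% = DMSO treated spheroids.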
smiles,measurement,setting,value
Cn1ncc(Cl)c1-c1cc(C(=O)NC(CN)Cc2cccc(F)c2)sc1Cl (stereo unspecified) + COc1c(OCCCN2CCOCC2)ccc2c3n(c(=NC(=O)c4cnc(N)nc4)nc12)CCN3,pIC50,second compound 0.00316 µM,6.21
same,pIC50,second compound 0.01 µM,6.19
same,pIC50,second compound 0.0316 µM,6.38
same,pIC50,second compound 0.1 µM,6.96
same,pIC50,second compound 0.316 µM,> 7.50
same,pIC50,second compound 1 µM,> 7.50
same,"viability, T/C",[1],110%
same,"viability, T/C",[2],102%
same,"viability, T/C",[3],59.3%
same,"viability, T/C",[4],40.3%
same,"viability, T/C",[5],23.1%
same,"viability, T/C",[6],7.29%
same,"viability, T/C",[7],97.9%
same,"viability, T/C",[8],84%
same,"viability, T/C",[9],70.5%
same,"viability, T/C",[10],35.2%
same,"viability, T/C",[11],22.1%
same,"viability, T/C",[12],6.56%
same,"viability, T/C",[13],84.6%
same,"viability, T/C",[14],78.2%
same,"viability, T/C",[15],53.5%
same,"viability, T/C",[16],32.2%
same,"viability, T/C",[17],16.9%
same,"viability, T/C",[18],4.04%
same,"viability, T/C",[19],67.5%
same,"viability, T/C",[20],52.1%
same,"viability, T/C",[21],34%
same,"viability, T/C",[22],21.8%
same,"viability, T/C",[23],10.3%
same,"viability, T/C",[24],3.19%
same,"viability, T/C",[25],21.9%
same,"viability, T/C",[26],16.6%
same,"viability, T/C",[27],11.8%
same,"viability, T/C",[28],7.56%
same,"viability, T/C",[29],4.03%
same,"viability, T/C",[30],1.46%
same,"viability, T/C",[31],4.06%
same,"viability, T/C",[32],2.7%
same,"viability, T/C",[33],2.87%
same,"viability, T/C",[34],2.72%
same,"viability, T/C",[35],2.27%
same,"viability, T/C",[36],0.3%
Cn1nccc1Nc1nccc(-c2ccn(C(CO)c3ccc(Cl)c(F)c3)c(=O)c2)n1 (stereo unspecified) + COc1c(OCCCN2CCOCC2)ccc2c3n(c(=NC(=O)c4cnc(N)nc4)nc12)CCN3,pIC50,second compound 0.00316 µM,< 5.00
same,pIC50,second compound 0.01 µM,< 5.00
same,pIC50,second compound 0.0316 µM,< 5.00
same,pIC50,second compound 0.1 µM,< 5.00
same,pIC50,second compound 0.316 µM,> 7.50
same,pIC50,second compound 1 µM,> 7.50
same,"viability, T/C",[1],103%
same,"viability, T/C",[2],92.3%
same,"viability, T/C",[3],106%
same,"viability, T/C",[4],103%
same,"viability, T/C",[5],98%
same,"viability, T/C",[6],79.2%
same,"viability, T/C",[7],113%
same,"viability, T/C",[8],96.8%
same,"viability, T/C",[9],104%
same,"viability, T/C",[10],111%
same,"viability, T/C",[11],107%
same,"viability, T/C",[12],79.4%
same,"viability, T/C",[13],90.9%
same,"viability, T/C",[14],91.4%
same,"viability, T/C",[15],86.3%
same,"viability, T/C",[16],110%
same,"viability, T/C",[17],102%
same,"viability, T/C",[18],79.2%
same,"viability, T/C",[19],70.1%
same,"viability, T/C",[20],65.7%
same,"viability, T/C",[21],64.2%
same,"viability, T/C",[22],83%
same,"viability, T/C",[23],83.3%
same,"viability, T/C",[24],68.8%
same,"viability, T/C",[25],20.6%
same,"viability, T/C",[26],21.1%
same,"viability, T/C",[27],26.9%
same,"viability, T/C",[28],28.3%
same,"viability, T/C",[29],48.6%
same,"viability, T/C",[30],44.5%
same,"viability, T/C",[31],3.68%
same,"viability, T/C",[32],3.03%
same,"viability, T/C",[33],3.39%
same,"viability, T/C",[34],3.34%
same,"viability, T/C",[35],8.78%
same,"viability, T/C",[36],9.04%
Cn1ncnc1[C@H]1c2n[nH]c(=O)c3cc(F)cc(c23)N[C@@H]1c1ccc(F)cc1 + COc1c(OCCCN2CCOCC2)ccc2c3n(c(=NC(=O)c4cnc(N)nc4)nc12)CCN3,pIC50,second compound 0.00316 µM,< 7.00
same,pIC50,second compound 0.01 µM,< 7.00
same,pIC50,second compound 0.0316 µM,< 7.00
same,pIC50,second compound 0.1 µM,7.49
same,pIC50,second compound 0.316 µM,> 9.50
same,pIC50,second compound 1 µM,> 9.50
same,"viability, T/C","second compound 0.00316 µM, first compound 0.000316 µM",100%
same,"viability, T/C","second compound 0.00316 µM, first compound 0.001 µM",92.2%
same,"viability, T/C","second compound 0.00316 µM, first compound 0.00316 µM",106%
same,"viability, T/C","second compound 0.00316 µM, first compound 0.01 µM",88.5%
same,"viability, T/C",[1],83.4%
same,"viability, T/C",[2],59.3%
same,"viability, T/C","second compound 0.01 µM, first compound 0.000316 µM",92.3%
same,"viability, T/C","second compound 0.01 µM, first compound 0.001 µM",92.1%
same,"viability, T/C","second compound 0.01 µM, first compound 0.00316 µM",88.7%
same,"viability, T/C","second compound 0.01 µM, first compound 0.01 µM",93.6%
same,"viability, T/C",[7],86.5%
same,"viability, T/C",[8],60.6%
same,"viability, T/C","second compound 0.0316 µM, first compound 0.000316 µM",88.5%
same,"viability, T/C","second compound 0.0316 µM, first compound 0.001 µM",93.3%
same,"viability, T/C","second compound 0.0316 µM, first compound 0.00316 µM",85.4%
same,"viability, T/C","second compound 0.0316 µM, first compound 0.01 µM",73.5%
same,"viability, T/C",[13],65.6%
same,"viability, T/C",[14],55.3%
same,"viability, T/C","second compound 0.1 µM, first compound 0.000316 µM",66.7%
same,"viability, T/C","second compound 0.1 µM, first compound 0.001 µM",60.7%
same,"viability, T/C","second compound 0.1 µM, first compound 0.00316 µM",57.5%
same,"viability, T/C","second compound 0.1 µM, first compound 0.01 µM",57.2%
same,"viability, T/C",[19],51.8%
same,"viability, T/C",[20],41%
same,"viability, T/C","second compound 0.316 µM, first compound 0.000316 µM",20.3%
same,"viability, T/C","second compound 0.316 µM, first compound 0.001 µM",19.2%
same,"viability, T/C","second compound 0.316 µM, first compound 0.00316 µM",18.7%
same,"viability, T/C","second compound 0.316 µM, first compound 0.01 µM",16.4%
same,"viability, T/C",[25],20%
same,"viability, T/C",[26],15.4%
same,"viability, T/C","second compound 1 µM, first compound 0.000316 µM",4.4%
same,"viability, T/C","second compound 1 µM, first compound 0.001 µM",3.64%
same,"viability, T/C","second compound 1 µM, first compound 0.00316 µM",3.49%
same,"viability, T/C","second compound 1 µM, first compound 0.01 µM",3.59%
same,"viability, T/C",[31],3.84%
same,"viability, T/C",[32],2.43%
